This is an account of results in paper PMC5063977 (The Journal of Biological Chemistry, 2016).

One assay has as its target T1, RAMP2-CLR (AM1 receptor) (Homo sapiens, UniProt O60895+Q16602).
T1 construct: FLAG; expressed in transfected cells; host or cells: HEK-293 or HEK-293S cells, transient transfection, 1:1 RAMP:CLR
The assay is described as follows: S. cerevisiae growth assay, GPA1/Gαs chimera, RAMP2 + CLR. Type of assay: cell-based. The settings on record: percentage of yeast strain MMY11 (lacking GPA1); 20 h; mean ± S.E., n = 7. As to the method:
FIGURE 1. […] Reporter gene activity was determined following 20 h of stimulation with each ligand. Data are expressed as a percentage of the maximum response observed in yeast strain MMY11 (lacking GPA1) and are means ± S.E. of n individual data sets. […] Data were determined as statistically different from the cognate ligand for each receptor (*, p < 0.05; **, p < 0.01; ***, p < 0.001) using a one-way ANOVA with Bonferroni's post-test.
General yeast procedures were performed as described previously ([22], [24]). The human CLR was introduced into yeast cells under the control of the PGK promoter using a plasmid containing ura3 (pDT-PGK). […] Receptor signaling was measured using the yeast growth assay as described previously ([24]). […] A fluorescein signal was detected as an increase in fluorescence (excitation wavelength = 485 nm, emission wavelength = 535 nm) as a measure of growth. Different concentrations of ligand (0.01 nM–100 μM) were assayed using 96-well plates, and fluorescence was detected using a Tecan Infinite M200 microplate reader (Tecan Ultra Evolution, Reading, UK) or a Mithras LB 940 microplate reader (Berthold Technologies, Harpenden, UK) for 20 h.
Data analysis for cAMP assays was performed in GraphPad Prism 6.0f (San Diego, CA). […] To quantitate the ligand-dependent response in the yeast system, a strain lacking GPA1 (MMY11), grown in rich medium, was used as a standard ([72]). […]

The target in assay [1] is T2, RAMP1-CLR (CGRP receptor) (Homo sapiens, UniProt O60894+Q16602).
T2 construct: FLAG; expressed in transfected cells; host or cells: HEK-293 or HEK-293S cells, transient transfection, 1:1 RAMP:CLR
The assay is described as follows: cAMP accumulation, HEK-293S cells, RAMP1 + CLR. The following applies: HEK293S, untreated, percentage of maximal cAMP with 100 μM forskolin, mean ± S.E., n = 5. Type of assay: cell-based. The method, then: HEK-293 cells were transfected with FuGENE 6 (Roche Applied Science) in accordance with the manufacturer's instructions using a 1:3 (w:v) DNA:FuGENE ratio and a 1:1 ratio of RAMP to CLR. […] The transfected cell lines were grown for 24–48 h prior to assaying.
The transfected HEK-293 cells were washed in PBS, resuspended in stimulation buffer (PBS containing 0.1% BSA and 0.5 mM IBMX), and seeded at 2000 cells/well in 384-well white Optiplates. Ligands were added in the range of 1 pM to 1 mM, and cAMP accumulation was measured after 30 min of stimulation using a LANCE® cAMP detection kit (PerkinElmer Life Sciences). […] Plates were read using a Mithras LB 940 multimode microplate reader (Berthold Technologies). […] Values were converted to concentration using a cAMP standard curve performed in parallel.
Data analysis for cAMP assays was performed in GraphPad Prism 6.0f (San Diego, CA). […] These values were then used to quantify signaling bias as change in log (τ/Ka) relative to the natural cognate ligand for the respective receptor ([41]). […] Statistical differences were analyzed using one-way ANOVA or Student's t test as appropriate with post hoc Bonferroni's or Dunnett's multiple comparisons, and p < 0.05 was considered significant. […] To quantitate the ligand-dependent response in the yeast system, a strain lacking GPA1 (MMY11), grown in rich medium, was used as a standard ([72]). […]
A general note: Changes in cAMP serve as a functional read-out for many G protein-coupled receptors.

T1 sequence (Q16602 23-461): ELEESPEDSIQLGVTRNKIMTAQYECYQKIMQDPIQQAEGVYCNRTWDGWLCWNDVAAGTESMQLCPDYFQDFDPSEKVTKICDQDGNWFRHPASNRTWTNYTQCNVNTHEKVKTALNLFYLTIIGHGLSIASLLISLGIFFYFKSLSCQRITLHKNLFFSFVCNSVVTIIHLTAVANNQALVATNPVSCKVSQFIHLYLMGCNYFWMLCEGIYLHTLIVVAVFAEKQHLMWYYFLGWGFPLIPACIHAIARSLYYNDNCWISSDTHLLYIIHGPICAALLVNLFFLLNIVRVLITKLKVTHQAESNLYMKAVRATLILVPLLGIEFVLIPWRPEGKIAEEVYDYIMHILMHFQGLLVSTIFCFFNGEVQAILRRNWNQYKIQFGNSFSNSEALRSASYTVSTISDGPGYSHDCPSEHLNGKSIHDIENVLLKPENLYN
T1 sequence (O60895 43-175): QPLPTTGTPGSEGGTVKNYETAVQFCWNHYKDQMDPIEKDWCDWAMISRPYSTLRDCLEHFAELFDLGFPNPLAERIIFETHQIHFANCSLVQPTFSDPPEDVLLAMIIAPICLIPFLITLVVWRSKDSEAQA
T2 sequence (Q16602 23-461): as the sequence (Q16602 23-461) above
T2 sequence (O60894 27-148): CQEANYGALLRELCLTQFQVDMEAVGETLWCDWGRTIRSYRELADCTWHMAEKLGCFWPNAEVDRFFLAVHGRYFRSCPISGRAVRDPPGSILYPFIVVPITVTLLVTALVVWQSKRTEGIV

Take `CSCC[C@H](NC(=O)[C@H](CC(C)C)NC(=O)[C@H](CCC(N)=O)NC(=O)[C@H](Cc1c[nH]c2ccccc12)NC(=O)[C@H](CC(C)C)NC(=O)[C@H](CCCNC(=N)N)NC(=O)[C@H](Cc1c[nH]cn1)NC(=O)[C@H](CO)NC(=O)[C@H](CC(C)C)NC(=O)[C@H](CC(N)=O)NC(=O)[C@H](CCC(N)=O)NC(=O)[C@@H](NC(=O)[C@H](CCC(N)=O)NC(=O)[C@@H]1CSSC[C@H](NC(=O)CNC(=O)[C@@H](NC(=O)[C@H](CCCNC(=N)N)NC(=O)[C@H](CC(C)C)NC(=O)[C@H](CC(C)C)NC(=O)[C@H](CCC(N)=O)NC(=O)[C@H](C)NC(=O)[C@H](CCC(N)=O)NC(=O)[C@@H](N)[C@@H](C)O)C(C)C)C(=O)N[C@@H](C(C)C)C(=O)N[C@@H](CC(C)C)C(=O)NCC(=O)N[C@@H]([C@@H](C)O)C(=O)N1)C(C)C)C(=O)NCC(=O)N1CCC[C@H]1C(=O)N[C@@H](C)C(=O)NCC(=O)N[C@@H](CCCNC(=N)N)C(=O)N[C@@H](CCC(N)=O)C(=O)N[C@@H](CC(=O)O)C(=O)N[C@@H](CO)C(=O)N[C@@H](C)C(=O)N1CCC[C@H]1C(=O)N[C@H](C(=O)N[C@@H](CC(=O)O)C(=O)N1CCC[C@H]1C(=O)N[C@@H](CO)C(=O)N[C@@H](CO)C(=O)N1CCC[C@H]1C(=O)N[C@@H](Cc1c[nH]cn1)C(=O)N[C@@H](CO)C(=O)N[C@@H](Cc1ccc(O)cc1)C(N)=O)C(C)C` [AM2, adrenomedullin 2]: the Emax at RAMP2-CLR (AM1 receptor) came out at 19.9 ± 2.5%. Take `CC[C@H](C)[C@H](NC(=O)[C@H](CCC(N)=O)NC(=O)[C@H](Cc1c[nH]cn1)NC(=O)[C@H](C)NC(=O)[C@H](CC(C)C)NC(=O)[C@H](CCCCN)NC(=O)[C@H](CCC(N)=O)NC(=O)[C@@H](NC(=O)[C@@H](NC(=O)[C@@H]1CSSC[C@H](NC(=O)CNC(=O)[C@H](Cc2ccccc2)NC(=O)[C@H](CO)NC(=O)[C@H](CCCNC(=N)N)NC(=O)[C@H](CC(C)C)NC(=O)CNC(=O)[C@H](CCC(N)=O)NC(=O)[C@H](Cc2ccccc2)NC(=O)[C@H](CC(N)=O)NC(=O)[C@H](CC(N)=O)NC(=O)[C@H](CCSC)NC(=O)[C@H](CO)NC(=O)[C@H](CCC(N)=O)NC(=O)[C@H](CCCNC(=N)N)NC(=O)[C@@H](N)Cc2ccc(O)cc2)C(=O)N[C@@H](CCCNC(=N)N)C(=O)N[C@@H](Cc2ccccc2)C(=O)NCC(=O)N[C@@H]([C@@H](C)O)C(=O)N1)[C@@H](C)O)C(C)C)C(=O)N[C@@H](Cc1ccc(O)cc1)C(=O)N[C@@H](CCC(N)=O)C(=O)N[C@@H](Cc1ccccc1)C(=O)N[C@H](C(=O)N[C@@H](CC(=O)O)C(=O)N[C@@H](CCCCN)C(=O)N[C@@H](CC(=O)O)C(=O)N[C@@H](CCCCN)C(=O)N[C@@H](CC(=O)O)C(=O)N[C@@H](CC(N)=O)C(=O)N[C@H](C(=O)N[C@@H](C)C(=O)N1CCC[C@H]1C(=O)N[C@@H](CCCNC(=N)N)C(=O)N[C@@H](CO)C(=O)N[C@@H](CCCCN)C(=O)N[C@H](C(=O)N[C@@H](CO)C(=O)N1CCC[C@H]1C(=O)N[C@@H](CCC(N)=O)C(=O)NCC(=O)N[C@@H](Cc1ccc(O)cc1)C(N)=O)[C@@H](C)CC)C(C)C)[C@@H](C)O` [AM, adrenomedullin]: the Emax in assay [1] was found to be 60 ± 3.1%.
